Source: the pKa sets of Baltruschat and Czodrowski (2020)

For `CNC(C)Cc1ccc(OC)c(OC)c1` (stereo unspecified), the pKa (basic group) was 9.8.
Work on `COC(=O)c1nc2cc(Cl)ccc2[nH]1` yielded a pKa (basic group) of 0.3.
With `Cc1cc(N(C)C)cc[n+]1O` the pKa (acidic group) was 4.37.
Work on `CCCCCC(=O)O` yielded a pKa (acidic group) of 4.85.
In the case of `CCCCCCCCCCCCCN`, the pKa (basic group) is reported as 10.6.
`CC(=O)C1C(=O)c2ccccc2C1=O` gave a pKa (basic group) of 2.88.
Work on `CCN(CC)CCSC1CCCCC1` yielded a pKa (basic group) of 8.11.
Work on `Cc1noc(NS(=O)(=O)c2ccc(N)cc2)c1C` yielded a pKa (acidic group) of 4.16.
For `CCOCCNc1ccc(C)cc1`, the pKa (basic group) was 4.6.
Compound `NC(=O)c1ccccc1C(=O)O` has a pKa (acidic group) of 3.75.
In the case of `Cc1ccc(Br)c(C(=O)O)c1`, the pKa (acidic group) is reported as 3.
In the case of `Nc1nnnn1-c1cccc([N+](=O)[O-])c1`, the pKa (basic group) is reported as 0.47.
`O=C(O)[C@@H]1O[C@H](Oc2ccc(-c3ccccc3)cc2)[C@@H](O)[C@H](O)[C@H]1O` gave a pKa (acidic group) of 3.1.
For `CN(CCC[NH3+])CCC[NH3+]`, the pKa (basic group) was 6.45.
Compound `O=C([O-])/C=C/C([O-])=C/C(=O)CC(=O)[O-]` has a pKa (acidic group) of 10.5.
For `CCNc1ncnc2[nH]ncc12`, the pKa (acidic group) was 10.9 and the pKa (basic group) was 4.6.
`CNCCc1ccc(O)c(O)c1` gave a pKa (acidic group) of 10.6 and a pKa (basic group) of 8.84.
For `c1ccc(-c2cccc(-c3ccccn3)n2)nc1`, the pKa (basic group) was 4.66.
Work on `[NH3+]CCCCCc1cccnc1` yielded a pKa (basic group) of 5.61.
Work on `OB(O)c1cccc(O)c1` yielded a pKa (acidic group) of 8.55.
`CCCc1cccnn1` gave a pKa (basic group) of 3.59.
In the case of `CCOC(=O)COc1ccc(Cc2ccc(O)c(C[NH3+])c2)c(Cl)c1Cl`, the pKa (acidic group) is reported as 8.73.
`N=C(N)NOCC(=O)[O-]` showed a pKa (basic group) of 7.58.
Compound `Cc1n[nH]cc1Cl` has a pKa (basic group) of 1.4.
With `CCCCCCCP(=O)(CCCCCCC)NC1CCCCC1` the pKa (acidic group) was 12.5 and the pKa (basic group) was 4.87.
Work on `S=CNc1ccc(Cl)cc1` yielded a pKa (acidic group) of 10.8.
Work on `O=P([O-])([O-])C([NH2+]Cc1ccncc1)c1ccccc1O` (stereo unspecified) yielded a pKa (acidic group) of 10.2.
`O=C1COCC(=O)C1=O` gave a pKa (acidic group) of 7.62.
Work on `O=C(CCl)CCl` yielded a pKa (basic group) of 11.
`OC[C@@H]1O[C@H](n2cnc3ccccc32)[C@@H](O)[C@H](O)[C@H]1O` gave a pKa (basic group) of 4.01.
`O=C(Cc1ccccn1)c1ccccc1` gave a pKa (acidic group) of 13.3 and a pKa (basic group) of 4.53.
Compound `[NH3+]CC(=O)O` has a pKa (acidic group) of 2.36.
`Cc1ccc2c(c1)c1c3n2CCN=C3CCC1` showed a pKa (basic group) of 8.57.
`Cc1ccc(N)cc1Cl` gave a pKa (basic group) of 4.05.
`CCCCOC(=O)c1ccc(O)cc1` showed a pKa (acidic group) of 8.34.
Work on `CCOC(=O)c1cnc2c([N+](=O)[O-])cccc2c1[O-]` yielded a pKa (basic group) of 8.9.
Work on `CNc1ccccc1` yielded a pKa (basic group) of 4.8.
With `Cn1ccnc1-c1[nH+]ccn1C` the pKa (basic group) was 0.5.
`CC1=C(CC(C)NCC(O)c2ccccc2)CCC1(C)C` (stereo unspecified) gave a pKa (basic group) of 8.84.
Work on `Oc1ccc2cc(I)ccc2c1` yielded a pKa (acidic group) of 9.23.
`O=C([O-])c1ccc([N+](=O)[O-])c2cccnc12` showed a pKa (basic group) of 4.67.
With `NCc1ccc([N+](=O)[O-])cc1` the pKa (basic group) was 8.5.
For `N#CC(C#N)=C(O)c1ccc(N)cc1`, the pKa (acidic group) was 4.28.
Work on `CN(CCC[NH+](C)C)C(=O)/C=N/O` yielded a pKa (acidic group) of 8.68.
With `O=C([O-])[C@@H]1CSCN1` the pKa (basic group) was 6.14.
`CC(CC(c1ccccc1)c1ccccc1)N1CCCCC1` (stereo unspecified) gave a pKa (basic group) of 8.8.
Compound `[NH3+][C@@H](CCCCN1C(=O)C[C@H]([NH3+])C1=O)C(=O)O` has a pKa (acidic group) of 2.5.
Compound `O=C([O-])[C@@H]1CC[C@H](C(=O)O)C1` has a pKa (acidic group) of 5.52.
`C1CNCNC1` showed a pKa (basic group) of 8.84.
Compound `C=CCN` has a pKa (basic group) of 9.74.
`CCCCNCCC(=O)[O-]` showed a pKa (basic group) of 10.6.
Work on `C[C@]1([NH3+])C[C@@H]1N` yielded a pKa (basic group) of 5.83.
In the case of `OCC[NH+](CCO)Cc1nc2ccccc2[nH]1`, the pKa (basic group) is reported as 2.15.
With `[NH3+]CC(=O)NCC(=O)NCC(=O)N1CCC[C@H]1C(=O)O` the pKa (acidic group) was 2.91.
Work on `COc1cnccn1` yielded a pKa (basic group) of 0.75.
Work on `CN(C)c1ncc(-c2ccccc2)s1` yielded a pKa (basic group) of 4.89.
`c1ccc2nc3ccccc3cc2c1` gave a pKa (basic group) of 5.48.
Work on `CCC(=O)c1nc(C(=O)O)cs1` yielded a pKa (acidic group) of 3.7.
Work on `O=S(=O)(Nc1ccccc1)C(F)(F)F` yielded a pKa (acidic group) of 4.85.
For `CCCOc1ccccc1C(=O)O`, the pKa (acidic group) was 4.24.
Work on `Nc1ccc(O)c2ncccc12` yielded a pKa (acidic group) of 11.2 and a pKa (basic group) of 5.67.
In the case of `O/N=C/c1ccncc1`, the pKa (acidic group) is reported as 9.91 and the pKa (basic group) is reported as 4.58.
Compound `Cc1ccc([N+](=O)[O-])cc1C(=O)O` has a pKa (acidic group) of 3.17.
`Cc1ccc(S(=O)(=O)N(CC[NH2+]CC(=O)O)CC(=O)O)cc1` showed a pKa (acidic group) of 1.99.
`O=C(/C=N/O)c1ccccc1` showed a pKa (acidic group) of 8.31.
